The conditions of series [1]: cited from earlier work; for hepatotoxicity rank within the BA series: series GM, 17AAG, 17DMAG, 17AG, 17AEP-GA.
A short description of series [2]: Interaction of BA Hsp90 inhibitors with reduced glutathione (HPLC, LC-MS, [3H] glutathione). As to the method: GM-glutathione conjugate formation was analyzed by HPLC and LC-MS. Briefly, 50 μM GM, 500 μM NADH, and 5 mM glutathione in the absence and presence of 11.8 μg rh-NQO1 and in the absence or presence of 2 μM ES936, were incubated in 50 mM potassium phosphate buffer, pH 7.4 (1 ml) at room temperature for 5 min. GM-glutathione conjugate formation was analyzed by HPLC at 270 nm (5 min).
Reaction conditions were: 50 μM 17DMAG, 500 μM NADH, and 5 mM glutathione, in the absence and presence of 11.8 μg rhNQO1 and in the absence or presence of 2 μM ES936, were incubated in 50 mM potassium phosphate buffer, pH 7.4 (1 ml) at room temperature for 3 h. 17DMAG-glutathione conjugate formation was analyzed by HPLC at 270 nm (3 h).
Reaction conditions were: 50 μM BA and 5 mM GSH were incubated in 50 mM potassium phosphate buffer, pH 7.4 (1 ml) at room temperature in the absence and presence of 11.8 μg of rhNQO1 and 500 μM NADH. BA-GSH conjugate formation was analyzed by HPLC at 270 nm and further confirmed by LC-MS. The amount of BA glutathione conjugate formation was quantified using [3H] glutathione.

For series [3], the target named is T1, purified human cytochrome P450 reductase (Homo sapiens, UniProt P16435).
T1 sequence (P16435 1-677): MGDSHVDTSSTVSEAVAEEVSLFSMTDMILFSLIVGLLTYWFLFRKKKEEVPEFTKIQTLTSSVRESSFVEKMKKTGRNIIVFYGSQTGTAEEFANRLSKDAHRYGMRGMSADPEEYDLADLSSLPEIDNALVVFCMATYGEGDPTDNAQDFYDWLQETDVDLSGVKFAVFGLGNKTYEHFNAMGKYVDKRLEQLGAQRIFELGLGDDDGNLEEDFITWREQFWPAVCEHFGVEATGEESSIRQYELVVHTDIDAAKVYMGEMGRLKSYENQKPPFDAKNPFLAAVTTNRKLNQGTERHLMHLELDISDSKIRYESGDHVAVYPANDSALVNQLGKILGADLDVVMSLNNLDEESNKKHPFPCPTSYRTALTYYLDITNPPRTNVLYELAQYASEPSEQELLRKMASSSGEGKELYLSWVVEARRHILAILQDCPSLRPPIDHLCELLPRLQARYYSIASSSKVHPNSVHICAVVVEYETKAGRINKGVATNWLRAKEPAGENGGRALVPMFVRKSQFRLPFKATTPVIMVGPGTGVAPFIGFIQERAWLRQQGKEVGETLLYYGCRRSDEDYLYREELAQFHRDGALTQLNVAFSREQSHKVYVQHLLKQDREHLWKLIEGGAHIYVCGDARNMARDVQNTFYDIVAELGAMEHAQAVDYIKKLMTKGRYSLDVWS
Nature of the series: Redox cycling catalyzed by purified human cytochrome P450 reductase. It is filed as biochemical.

Series [4] addresses T2, NADPH-cytochrome P450 reductase (human liver microsomes) (Homo sapiens, UniProt P16435).
T2 construct: Using human and mouse liver microsomes and either NADPH or NADH as cofactors; from tissue; host or cells: human liver microsomes
T2 sequence (P16435 1-677): T1 sequence (P16435 1-677)
Nature of the series: One-electron redox cycling of BAs in human liver microsomes (oxygen consumption rate). It is filed as in vitro ADME. The following applies: NADPH- or NADH-dependent, 50 μM BA. As for the experimental part:
(§1) Using human and mouse liver microsomes and either NADPH or NADH as cofactors, the relative one-electron redox cycling rates of BAs mediated by NADPH-cytochrome P450 reductase were determined by measuring the rates of oxygen consumption. The rates of oxygen consumption and NAD(P)H oxidation were measured as indicators of the relative redox cycling rates of BAs. […] The oxygen consumption rate was measured using a Clark electrode (air tight) over 10 min.
A general note: Liver microsomes are vesicles of endoplasmic reticulum, rich in cytochrome P450 enzymes.

Series [5] addresses T3, NADPH-cytochrome P450 reductase (mouse liver microsomes) (Mus musculus, UniProt P37040).
T3 construct: Using human and mouse liver microsomes and either NADPH or NADH as cofactors; from tissue; host or cells: mouse liver microsomes
T3 sequence (P37040 1-678): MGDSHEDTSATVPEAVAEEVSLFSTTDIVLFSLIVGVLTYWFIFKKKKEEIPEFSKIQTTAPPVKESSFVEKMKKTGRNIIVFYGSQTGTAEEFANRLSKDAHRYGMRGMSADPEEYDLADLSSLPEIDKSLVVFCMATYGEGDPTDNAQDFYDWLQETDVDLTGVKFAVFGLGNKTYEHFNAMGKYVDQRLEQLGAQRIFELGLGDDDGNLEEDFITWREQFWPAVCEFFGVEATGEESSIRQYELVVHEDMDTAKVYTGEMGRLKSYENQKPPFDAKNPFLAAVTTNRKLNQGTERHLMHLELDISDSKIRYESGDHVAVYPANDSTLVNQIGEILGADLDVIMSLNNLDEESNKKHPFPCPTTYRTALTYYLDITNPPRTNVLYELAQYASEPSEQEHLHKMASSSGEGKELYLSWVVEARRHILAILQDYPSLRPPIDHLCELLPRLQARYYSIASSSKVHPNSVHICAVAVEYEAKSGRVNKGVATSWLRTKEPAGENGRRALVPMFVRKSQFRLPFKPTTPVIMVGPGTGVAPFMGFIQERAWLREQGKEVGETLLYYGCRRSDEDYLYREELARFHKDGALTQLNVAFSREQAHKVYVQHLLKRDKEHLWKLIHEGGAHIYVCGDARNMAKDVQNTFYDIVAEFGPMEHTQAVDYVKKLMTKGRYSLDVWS
The series is described as follows: One-electron redox cycling of BAs in mouse liver microsomes (oxygen consumption rate). It counts as in vitro ADME. The following applies: NADPH- or NADH-dependent, 50 μM BA. As for the experimental part: as §1

[6] abbreviates: 50 μM BA, 5 mM reduced glutathione, pH 7.4, room temperature.

Consider five compounds from patent publication US8551964B2, “Hsp90 inhibitors with modified toxicity” (The Regents of the University of Colorado, priority 2007, dated 2013).

Each structure is given as a SMILES string.

For `C=CCNC1=C2C[C@@H](C)C[C@H](OC)[C@H](O)[C@@H](C)/C=C(\C)[C@H](OC(N)=O)[C@@H](OC)/C=C\C=C(/C)C(=O)NC(=CC1=O)C2=O` [17AAG, 17-(allylamino)-17-demethoxygeldanamycin], in series [1], the “hepatotoxicity rank within the BA series” value is on record as “least hepatotoxic”. For the same compound, in series [2] (setting [6]), the “formation of glutathione conjugate (speed, in words)” value is listed as “very slow”.
Consider `CO[C@H]1/C=C\C=C(/C)C(=O)NC2=CC(=O)C(NCCN3CCCC3)=C(C[C@@H](C)C[C@H](OC)[C@H](O)[C@@H](C)/C=C(\C)[C@@H]1OC(N)=O)C2=O` [17AEP-GA, 17-demethoxy-17-[[2-(pyrrolidin-1-yl)ethyl]amino]-geldanamycin], for which the “relative rate of glutathione conjugate formation (rank order in the series)” value (from here on “relative rate … (rank order in the series)”) in series [2] (setting [6]) is “GM>17DMAG>17AEP-GA>17AAG and 17AG”. The “fraction conjugated with glutathione” value in series [2] (50 μM BA, 5 mM reduced glutathione, pH 7.4, room temperature, within 10 h) is given as “about 90%”.
`CO[C@H]1/C=C\C=C(/C)C(=O)NC2=CC(=O)C(N)=C(C[C@@H](C)C[C@H](OC)[C@H](O)[C@@H](C)/C=C(\C)[C@@H]1OC(N)=O)C2=O` [17AG, 17-(amino)-17-demethoxygeldanamycin]: in series [2] (setting [6]), the “formation of glutathione conjugate (speed, in words)” value is “very slow”; the “relative rate … (rank order in the series)” value was “GM>17DMAG>17AEP-GA>17AAG and 17AG”.
As to `CO[C@H]1/C=C\C=C(/C)C(=O)NC2=CC(=O)C(NCCN(C)C)=C(C[C@@H](C)C[C@H](OC)[C@H](O)[C@@H](C)/C=C(\C)[C@@H]1OC(N)=O)C2=O` [17DMAG, 17-demthoxy-17-[[2-(dimethylamino)ethyl]amino]-geldanamycin], in series [2] (setting [6]), the 17DMAGH2-SG conjugate detection result is “not detected”; the “relative rate … (rank order in the series)” value was “GM>17DMAG>17AEP-GA>17AAG and 17AG”. Besides, the 17DMAG-SG conjugate formed entry in series [2] (50 μM BA, 5 mM reduced glutathione, pH 7.4, room temperature, within 4 h) is “approximately 47 μM”. For the same compound, the “rate of redox cycling” value in series [3] is on record as “greatest rate”.
Consider `COC1=C2C[C@@H](C)C[C@H](OC)[C@H](O)[C@@H](C)/C=C(\C)[C@H](OC(N)=O)[C@@H](OC)/C=C\C=C(/C)C(=O)NC(=CC1=O)C2=O` [GM, geldanamycin], for which the hepatotoxicity result in series [1] (administration, Phase I clinical trials) was “unacceptable hepatotoxicity”. Also, the “hepatotoxicity rank within the BA series” value in series [1] was “most hepatotoxic”. For the same compound, the “relative rate … (rank order in the series)” value in series [2] (50 μM, pH 7.4) is “GM>17DMAG>17AEP-GA>17AAG and 17AG”. Moreover, the GMH2-SG conjugate formed result in series [2] (5 min, 50 μM, pH 7.4) was “approximately 45 μM”. Besides, the “relative rate of metabolism (one-electron redox cycling, oxygen consumption)” value in series [4] and in series [5] was “relatively rapid rate” throughout.
